How the values were obtained:
Format in all cases: cell-based, human
[1] = test system: GREB1; test: GREB1 expression in HepG2 cells after GREB1 siRNA or GREB1 ASO (cell lysates probed with anti-GREB1 antibody); details: siRNA 10 nm, lysate probing
Experimental: Phosphorothioated I5-mer antisense oligonucleotides (ASOs) containing AmNA monomers were prepared (synthesized by GeneDesign (Ibaraki, Japan)). In the present specification, “hGREB1-6424-AmNA (15)” is sometimes simply referred to as “ASO-6424” or “GREB1 ASO-6424”. Similar abbreviations are used for describing other ASOs. Using RNAiMAX (Invitrogen, Carlsbad, Calif., USA), HepG2 or COLO679 cells were transfected with 10 nM of ASOs. In experiments, the cells were used from 36 to 48 hours after transfection.
Using RNAiMAX (Life Technologies/Thermo Fisher Scientific), HepG2 cells, Huh6 cells, Hep3B cells, JHH7 cells, and SKMEL28 cells were each transfected with each siRNA (10 nm). In experiments, the cells were used from 48 to 120 hours after transfection.
As reported previously, knockdown of β-catenin decreased HepG2 cell proliferation (see a of FIG. 3). […] Thus, to elucidate the role of GREB1 in HepG2 cells, knockdown of GREB1 was carried out using two different siRNAs.
Next, HepG2 cells were transfected with control ASO or each of the above-described GREB1 ASOs, cultured in a medium containing 10% FBS for 2 days, and the cell lysates were probed with anti-GREB1 antibody and anti-HSP90 antibody.

[2] = test system: HepG2 cells; test: Cell viability by propidium iodide and Hoechst33342 staining; details: medium without Z-VAD, 0.1% FBS, 2 days; PI and Hoechst33342
Experimental: Further, HepG2 cells were transfected with control siRNA or siRNAs (GREB1 #1 siRNA and GREB1 #2 siRNA), cultured in media (caspase inhibitor Z-VAD was contained in one condition, and not contained in the other condition) containing 0.1% FBS for 2 days, stained with propidium iodide (PI, […]) and Hoechst33342 (nucleus), and the cell viability was evaluated.
Further, HepG2 cells transfected with control siRNA, GREB1 siRNA (GREB1 #2 siRNA), p15 siRNA, or siRNA of GREB1 (GREB1 #2 siRNA) and siRNA of p15 in combination were cultured in media (caspase inhibitor Z-VAD was contained in one condition, and not contained in the other condition) containing 0.1% FBS for 2 days, stained with propidium iodide (PI) and Hoechst33342, and the cell viability was calculated.

[3] = test system: Smad2/3; test: Smad2/3 immunostaining and immunoprecipitation in HepG2 cells
Experimental: HepG2 cells (100 mm diameter dish) were lysed with 400 μl of a cell lysis buffer (10 mM Tris-HCl [pH 7.4], 140 mM NaCl, 5 mM EDTA, 1% NP40, 25 mM NaF, […], and 10 mM PMSF). The resulting lysate was immunoprecipitated with anti-Smad2/3 antibody, and the immunoprecipitates were probed with predetermined antibodies.
Further, HepG2 cells transfected with control siRNA or GREB1 #2 siRNA were cultured in the presence or absence of 10 ng/mL of TGFβ for 30 minutes. The cultured cells were fixed, and immunostained with anti-Smad2/3 antibody (see c of FIG. 8). Further, cell lysates of the cultured cells were immunoprecipitated with anti-Smad2/3 antibody. Next, the resulting cell lysates (Input) and immunoprecipitates (IP) were reacted with anti-Smad4 antibody or anti-Smad2/3 antibody (see d of FIG. 8). In addition, the cell lysates of the cultured cells were reacted with anti-GREB1 antibody, anti-phosphorylated Smad2/3 (pSmad2/3) antibody, or anti-Smad2/3 antibody (see e of FIG. 8).
Lysates of HepG2 cells transfected with control siRNA or GREB1 #2 siRNA were immunoprecipitated with anti-Smad2/3 antibody. Next, the resulting cell lysates (input) and immunoprecipitates (IP) were reacted with anti-p300 antibody, anti-GREB1 antibody, or anti-Smad2/3 antibody (see e of FIG. 7). […]

[4] = test system: PAI-1 gene locus (exon 2); test: Chromatin immunoprecipitation with anti-acetylated histone 4 antibody, PAI-1 exon 2; details: HepG2 cells; presence or absence of 10 ng/mL TGFβ for 30 minutes
Experimental: Confluent HepG2 cells in a 10 cm dish were stimulated in the presence or absence of 5 ng/ml of TGFβ1 for 3 hours. Thereafter, the cells were allowed to crosslink using 1% formaldehyde at room temperature for 10 minutes, and the crosslinking reaction was terminated with 0.125 M glycine. The cells were washed three times with cold PBS, and thereafter the cells were removed and collected. Further, the cells were sedimented by centrifugation, and lysed with a sodium dodecyl sulfate (SDS) lysis buffer (50 mM Tris/HCl [pH 8.0], 10 mM EDTA, and 0.5% SDS). The cell lysates were subjected to ultrasonication to shear DNA into DNA fragments having sizes of 200 to 1000 bp. Supernatant of the sheared chromatin was diluted with ChIP dilution buffer (16.7 mM Tris/HCl [pH 8.0], 167 mM NaCl, 1.2 mM EDTA, and 1.1% Triton X-100) containing a protease inhibitor and a phosphatase inhibitor, and precleared by adding salmon sperm DNA/protein A-agarose beads (Millipore, Billerica, Mass., USA). […]
Further, HepG2 cells transfected with control siRNA or GREB1 #2 siRNA were cultured in the presence or absence of 10 ng/mL of TGFβ for 30 minutes. […] Next, the exon 2 domain of PAI contained in the cell lysates (Input) and immunoprecipitates (IP) was analyzed by PCR using domain-specific primers.

GREB1 #2 siRNA: siRNA against human GREB1; sense 5′-CCUCCUACAAAGCAAUAUUTT-3′ (SEQ ID NO: 6), antisense SEQ ID NO: 7 (antisense AAUAUUGCUUUGUAGGAGGTT; chemistry not given here)
knockdown of GREB1 (anti-GREB1 antibody) [1]: knocked down
cell death of HepG2 cells [2]: elevated cell death
TGFβ-dependent nuclear transport of Smad2/3, complex formation of Smad2/3 and Smad4, phosphorylation of Smad2/3 ([3]; 10 ng/mL TGFβ for 30 minutes): no effect
binding of Smad2/3 to p300 ([3]; anti-Smad2/3 immunoprecipitation): increased
amount of acetylated histone 4 in the PAI-1 gene locus (exon 2) [4]: increased

From US20220249538A1, “TREATMENT AGENT FOR SEX HORMONE-INSENSITIVE GREB1-POSITIVE TUMORS” (OSAKA UNIVERSITY, priority 2019, published 2022)
